Data taken from patent US20250041298A1, “CDK4 INHIBITOR FOR THE TREATMENT OF CANCER” (Pfizer Inc., priority 2021, published 2025).
Where “and” joins values, the source holds several entries; their conditions need not be identical. Equal values may be shown once.

What was measured:
Type in all cases: cell-based, human
[1] = tested on: HR+, HER2- T47D breast cancer spheroids; experiment: Multicellular tumor spheroid growth inhibition (SGI), T47D
Method: (§1) The purpose of this example was to evaluate the combination effect of PF-07220060 and endocrine therapy in multicellular tumor spheroid growth inhibition (SGI). To model the characteristics and cellular behavior of human tumors, the activity of PF-07220060 was evaluated in three dimensional MCTS models of HR+ breast cancer and AR+ prostate cancer following PF-07220060 treatment as a single agent and in combination with fulvestrant • 1) in HR+, HER2-T47D breast cancer spheroids. • 2) in HR+, HER2+BT474 breast cancer spheroids, • 3) in BT474 spheroids, and • 4) in AR+ prostate carcinoma cell line (LNCaP) prostate cancer spheroids. Spheroids were treated with increasing concentrations of 100, 300, or 1000 nM PF-07220060 and compared to palbociclib at the clinically relevant concentration of 30 nM. Single agent PF-07220060 inhibited spheroid growth in a dose-dependent manner, with highest efficacy (86% SGI over the duration of treatment with 1000 nM) shown in the T47D BC spheroid model (Table 1). Combining 100 nM PF-07220060 with 1 nM fulvestrant in T47D cells increased SGI to 96% compared to either single agent alone (57 to 67% SGI with 100 nM PF-07220060 or 79% SGI with fulvestrant) (Table 1). BT474 spheroids were relatively less sensitive to PF-07220060 resulting in 52% SGI at 1000 nM.

[2] = tested on: HR+, HER2+ BT474 breast cancer spheroids; experiment: Multicellular tumor spheroid growth inhibition (SGI), BT474
Method: as §1

[3] = tested on: AR+ prostate carcinoma cell line (LNCaP) prostate cancer spheroids; experiment: Multicellular tumor spheroid growth inhibition (SGI), LNCaP
Method: The purpose of this example was to evaluate the combination effect of PF-07220060 and endocrine therapy in multicellular tumor spheroid growth inhibition (SGI). To model the characteristics and cellular behavior of human tumors, the activity of PF-07220060 was evaluated in three dimensional MCTS models of HR+ breast cancer and AR+ prostate cancer following PF-07220060 treatment as a single agent and in combination with fulvestrant • 1) in HR+, HER2-T47D breast cancer spheroids. • 2) in HR+, HER2+BT474 breast cancer spheroids, • 3) in BT474 spheroids, and • 4) in AR+ prostate carcinoma cell line (LNCaP) prostate cancer spheroids. Spheroids were treated with increasing concentrations of 100, 300, or 1000 nM PF-07220060 and compared to palbociclib at the clinically relevant concentration of 30 nM.

SMILES	SGI ([1]; 30 nM single agent)	SGI ([2]; 30 nM single agent)	SGI ([3]; 30 nM single agent)	SGI ([3]; 100 nM single agent)	SGI ([1]; 1 nM single agent)	SGI ([2]; 100 nM single agent)
CC(=O)c1c(C)c2cnc(Nc3ccc(N4CCNCC4)cn3)nc2n(C2CCCC2)c1=O [Palbociclib, reference compound]	38% and 49%	0% and 5% and 1%	5%	24%	–	–
C[C@]12CC[C@@H]3c4ccc(O)cc4C[C@@H](CCCCCCCCC[S+]([O-])CCCC(F)(F)C(F)(F)F)[C@H]3[C@@H]1CC[C@@H]2O (stereo partly drawn) [Fulvestrant, reference compound]	–	–	–	–	79%	10%
